Measurements taken from patent US11117919B2, “Icariside compound, preparation method thereof, and application thereof” (FOSHAN GOLDEN HEALTH TECHNOLOGY CO., LTD., priority 2015, dated 2021).

Test system: human peripheral blood mixed lymphocytes
Assay: IFN-γ production in mixed lymphocyte culture (MLC) reaction
Assay type: cell-based
Conditions: 120 h
Protocol: Effect of icariside I on promotion of γ-interferon (interferon-gamma, IFN-γ) production by human peripheral blood mixed lymphocytes during culture (an experimental model mimicking enhancing immunity in human body).
(1) Preparation of human peripheral blood mononuclear cells (PBMCs): following the method in Example 5 (2), peripheral blood PBMCs from two normal human were prepared.
Cell concentrations of freshly isolated peripheral blood mononuclear cells (PBMCs) were adjusted to […] with RPMI1640 complete medium. Then, lymphocytes from two healthy human with equal volumes were mixed to maintain a total cell concentration of […]. Different concentrations (in a gradient) of or no icariside I were added thereto (with final concentration of 100 ng/ml, 1000 ng/ml) followed by fully mixing. Then the cells after stimulation were seeded and cultured in a 96-well round-bottom culture plate. The cell concentration per well was maintained at 2×10^5/ml (200 μl/well) and was incubated at 37° C. with 5% CO2 for 120 h in an incubator. The levels of cytokine IFN-γ were detected.
According to the method stated in Example 5 (4), the γ-interferon generated from human peripheral blood mixed lymphocyte culture (MLC) was detected.
Equal cell concentrations of lymphocytes from healthy human were mixed cultured for five days (120 h). The pharmaceutical icariside I was added (in a gradient of different pharmaceutical concentrations) or not added. […] Among them, the human lymphocyte A control is a group of samples containing only one kind of human lymphocyte, while human lymphocyte B control is a group of samples containing two kinds of human lymphocytes, that is, a control group in which two kinds of human lymphocytes were mixed for culture without adding icariside I. The concentrations of icariside I added were 0.1 and 1 μg/ml respectively. *P<0.05; **P<0.01. […]
Cell concentrations of freshly isolated peripheral blood mononuclear cells (PBMCs) were adjusted to 5×10^5/ml with RPMI1640 complete medium. […] The level of cytokine IFN-γ produced was then detected.

With `COc1ccc(-c2oc3c(CC=C(C)C)c(O[C@@H]4O[C@H](CO)[C@@H](O)[C@H](O)[C@H]4O)cc(O)c3c(=O)c2O)cc1` [icariside I] the “promotion of generation of IFN-γ in the mixed lymphocyte culture” value (100 and 1000 ng/ml, dose dependent) was “up to 300%” and the “ability to promote human γ-interferon production in mixed lymphocyte culture” value (final concentration 1000 ng/ml) was “best ability”.
